Assay results: paper PMC5933457, “Probing biological activity through structural modelling of ligand-receptor interactions of 2,4-disubstituted thiazole retinoids” (Bioorganic & Medicinal Chemistry, 2018)
Read-outs that look alike come from different tables or passages of the source.

Assays:
Format in all cases: biochemical
[1] = biological target: T1, RARβ ligand-binding domain (GST-RAR-β-LBD) (Homo sapiens, UniProt P10826); test: LanthaScreen TR-FRET RARβ co-activator (receptor binding) assay; conditions: for EC50: estimated EC50, TR-FRET co-activator assay, 4 h incubation, read-out: EC50 (95% confidence range) RARβ; for binding-curve upper asymptote (coactivator recruitment), RARβ: in words, Fig. 6B
T1 construct: purchased Invitrogen
T1 sequence (P10826 183-417 limits assumed): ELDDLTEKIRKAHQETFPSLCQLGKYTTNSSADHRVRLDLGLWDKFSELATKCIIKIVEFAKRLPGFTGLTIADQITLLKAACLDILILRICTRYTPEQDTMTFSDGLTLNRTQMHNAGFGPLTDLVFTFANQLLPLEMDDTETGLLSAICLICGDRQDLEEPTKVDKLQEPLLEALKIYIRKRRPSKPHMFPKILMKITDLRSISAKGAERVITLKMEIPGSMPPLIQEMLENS
Description: (§1) These predictions were tested through a receptor-binding assay for each RAR isotype (Fig. 6), where the assay signal is dependent on two parameters: the binding affinity of ligand to the RAR LBD, and the affinity of the coactivator for the ligand-LBD complex. For this assay, binding curves and variation in level of the upper asymptote can reflect differences in co-activator affinity for the ligand-LBD complex; variation in affinity of ligand for LBD shifts the midpoint (EC50) of the binding curve, whereas changes in the level of the upper asymptote may result from changes in coactivator affinity for the ligand-LBD complex alone, or in combination with changes in affinity for ligand with LBD.[23]
(§2) The binding interaction of each retinoid with RARα, β and γ were determined in vitro by time-resolved fluorescence resonance energy transfer (TR-FRET) using the LanthaScreen TR-FRET RARα, RARβ, and RARγ co-activator assays according to the manufacturer’s (Invitrogen™) instructions.[23] This uses a terbium-labeled anti-GST antibody, a fluorescein-labeled co activator peptide, and RARα/β/γ ligand-binding domains (LBD) that are tagged with glutathione-S-transferase (GST) in a homogenous assay format. All experiments were performed in black, 384-well low-volume plates in the dark at RT with a 4 h incubation time. The final assay volume was 20 μL and all dilutions were carried out using TR-FRET assay buffer, with a final DMSO concentration of 1%. A mixture of either 3.5 nM GST-RAR-α-LBD or 2.5 nM GST-RAR-β-LBD or 3 nM GST-RAR-γ-LBD with 62.5 nM Tb-anti GST antibody and 30 μM fluorescein-labeled peptide and retinoid or DMSO control was added to each of the wells. Each ligand assay was performed in duplicate and measured using a PHERAstar FS Microplate Reader (BMG Labtech, Ortenberg, Germany) with instrument settings as described in the manufacturer’s instructions for LanthaScreen assays. The TR-FRET signal was expressed as the ratio of the signals at 520 nm and 490 nm. The data were fitted to a three-parameter ligand-binding curve using SigmaPlot (version 12.5, Systat Software Inc., San Jose CA) and normalized to the lower asymptote of each binding curve. […] Since the assay involves interactions between ligand and LBD, and ligand-dependent interactions between the LBD and fluorescein-labeled co activator, the binding assay data were interpreted by simulating these coupled chemical reactions using the biochemical simulator COPASI version 4.3.[23], [54]
(§3) The readout of the Lanthascreen TR-FRET binding assay is based on a Forster resonance energy transfer (FRET) signal generated from the interaction between a terbium-labelled anti-glutathione-S-transferase (GST) antibody and a fluorescein-labelled coactivator peptide. The RAR ligand-binding domain (LBD) is a GST fusion protein and interaction between the LBD and the fluorescein-labelled coactivator peptide is driven by the binding of ligand to the LBD, and detected by the FRET signal from the terbium/fluorescein interaction when the terbium-labelled anti-GST binds the LBD fusion protein. The output of the assay thus relies on two binding interactions: ligand with LBD, and ligand-bound LBD with the coactivator peptide. As both interactions may be affected by the fit of ligand to the binding pocket of the LBD, we used the biochemical pathway simulator COPASI^1 to build a simple model of how the FRET signal output in the assay will vary according to differential changes in the kinetics of the two binding interactions. Reactions were modelled deterministically using mass-action kinetics described by ordinary differential equations (ODE) within COPASI.^1 This model enables us to assess the effect of different rate constants and varying ligand concentration on the formation of the final ternary complex that is the read-out from the Lanthascreen TR-FRET assay.

[2] = biological target: T2, RARα ligand-binding domain (GST-RAR-α-LBD) (Homo sapiens, UniProt P10276); test: LanthaScreen TR-FRET RARα co-activator (receptor binding) assay; conditions: for binding-curve upper asymptote (coactivator recruitment), RARα: in words, Fig. 6A; for EC50: read-out: EC50 (95% confidence range) RARα
T2 construct: purchased Invitrogen
T2 sequence (P10276 183-417 limits assumed): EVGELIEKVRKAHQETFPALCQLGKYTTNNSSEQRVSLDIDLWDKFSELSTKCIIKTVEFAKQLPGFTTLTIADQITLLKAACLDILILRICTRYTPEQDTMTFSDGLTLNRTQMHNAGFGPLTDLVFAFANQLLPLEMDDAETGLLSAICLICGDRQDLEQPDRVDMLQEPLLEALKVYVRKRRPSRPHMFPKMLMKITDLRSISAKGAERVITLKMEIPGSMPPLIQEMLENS
Description: as §1, §2, §3

[3] = biological target: T3, RARγ ligand-binding domain (GST-RAR-γ-LBD) (Homo sapiens, UniProt P13631); test: LanthaScreen TR-FRET RARγ co-activator (receptor binding) assay; conditions: for EC50: estimated EC50, TR-FRET co-activator assay, 4 h incubation, read-out: EC50 (95% confidence range) RARγ; for binding-curve upper asymptote (coactivator recruitment), RARγ: in words, Fig. 6C
T3 construct: purchased Invitrogen
T3 sequence (P13631 185-419 limits assumed): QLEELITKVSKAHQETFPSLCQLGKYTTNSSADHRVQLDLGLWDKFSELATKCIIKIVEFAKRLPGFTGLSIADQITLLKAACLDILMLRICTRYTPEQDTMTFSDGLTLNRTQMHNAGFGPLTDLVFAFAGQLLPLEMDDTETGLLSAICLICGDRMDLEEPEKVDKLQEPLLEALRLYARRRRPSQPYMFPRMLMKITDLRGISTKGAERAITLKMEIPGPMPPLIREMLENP
Description: as §1, §2, §3

[4] = estimated EC50, TR-FRET co-activator assay, 4 h incubation

Structure (SMILES)	EC50 [1] [nM]	binding-curve upper asymptote (coactivator recruitment), RARα [2]	EC50 [2] [nM]	EC50 [3] [nM]	binding-curve upper asymptote (coactivator recruitment), RARγ [3]	binding-curve upper asymptote (coactivator recruitment), RARβ [1]	EC50 [2, 4] [nM]
Cc1sc(-c2ccc(C(=O)O)cc2)nc1-c1ccc2c(c1)C(C)(C)CCC2(C)C [GZ25]	11	high curve asymptotes	8.2	98.9	high		
CCOC(=O)c1ccc(-c2nc(-c3ccccc3)c(C)s2)cc1 [GZ22]	136	lower asymptotes		383		high asymptote	82
CCOCCOc1nc(-c2ccc(C(=O)O)cc2)sc1C [GZ18]	56.7	high curve asymptotes		141	very low binding-curve upper asymptotes	very low asymptotes	15.1
